Laboratory results: patent publication US11214562B2, “Cyclohexyl benzamide compounds” (Eli Lilly and Company, priority 2016, dated 2022)

How the values were obtained:
GPR142 = target: T1, GPR142 (Mus musculus, UniProt Q7TQN9); experiment: Intraperitoneal glucose tolerance test (IPGTT); assay type: in vivo; details: male C57BL/6 mice, oral dose 90 min prior to 2 g/kg i.p. glucose challenge
T1 construct: from tissue; host or cells: whole animal, male C57BL/6 mice
T1 sequence (Q7TQN9 1-365): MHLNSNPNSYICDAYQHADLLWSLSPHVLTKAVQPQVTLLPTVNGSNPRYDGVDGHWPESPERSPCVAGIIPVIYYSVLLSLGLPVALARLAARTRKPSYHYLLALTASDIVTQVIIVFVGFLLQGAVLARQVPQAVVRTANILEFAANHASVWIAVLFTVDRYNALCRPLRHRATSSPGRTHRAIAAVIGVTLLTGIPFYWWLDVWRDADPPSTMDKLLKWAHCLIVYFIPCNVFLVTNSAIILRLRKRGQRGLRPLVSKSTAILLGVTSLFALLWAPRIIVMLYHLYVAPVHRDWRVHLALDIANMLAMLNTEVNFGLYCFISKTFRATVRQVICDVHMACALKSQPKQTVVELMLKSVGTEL
Excerpt: Intraperitoneal Glucose Tolerance Tests (IPGTT)
The IPGTT assay is used to examine the ability of a compound to activate GPR142 in vivo resulting in anti-diabetic efficacy, i.e. reduction in plasma glucose levels. Male C57BL/6 mice (8-10 weeks of age) are fed normal rodent chow diet and water ad libitum. On the night before the study, fast the animals overnight in clean cages. On the morning of the study, orally dose the animals with either vehicle or a test compound at the indicated doses 90 min prior to the glucose challenge (2 g/kg) by intraperitoneal injection. Determine the blood glucose levels from tail bleeds taken immediately prior to compound dosing (−90 min) and 0, 15, 30, and 60 min after glucose challenge using handheld glucometers. Use the blood glucose profile from t=0 to t=60 min to calculate an area under the curve (AUC) for each treatment. Calculate the percent glucose lowering. The AUC is calculated for each treatment group with respect to the AUC of vehicle group. A compound with a reduction in glucose AUC (P<0.05) is considered positive in the assay.

human GPR142 = target: T2, human GPR142 (Homo sapiens, UniProt Q7Z601); experiment: GPR142 agonist effect as measured by IP-1 assay (IP-One HTRF); assay type: cell-based
T2 construct: expressed in transfected cells; host or cells: HEK293 (kept under G418 selection)
T2 sequence (Q7Z601 1-462): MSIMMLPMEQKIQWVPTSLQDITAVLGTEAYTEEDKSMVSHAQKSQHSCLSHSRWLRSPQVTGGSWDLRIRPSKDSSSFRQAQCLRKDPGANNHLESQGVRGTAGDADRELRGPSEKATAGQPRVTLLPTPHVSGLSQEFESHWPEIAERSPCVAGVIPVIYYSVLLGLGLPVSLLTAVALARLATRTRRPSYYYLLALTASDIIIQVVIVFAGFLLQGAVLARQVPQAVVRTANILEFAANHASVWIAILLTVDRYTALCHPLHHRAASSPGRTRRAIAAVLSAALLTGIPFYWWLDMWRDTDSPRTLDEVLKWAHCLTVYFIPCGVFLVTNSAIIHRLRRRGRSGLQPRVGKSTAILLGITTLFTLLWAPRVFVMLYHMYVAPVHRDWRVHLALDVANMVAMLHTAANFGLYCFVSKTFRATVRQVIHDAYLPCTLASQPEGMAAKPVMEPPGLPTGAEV
Protocol: Biological Assays GPR142 Agonist Effect as Measured by IP-1 Assay
HEK293 cells expressing human GPR142 are maintained in DMEM supplemented with 10% FBS and 800 μg/ml G418 (Geneticin®) at 37° C. and 5% CO2. Plate the cells in 384 well plates at 5000 cells per well and allow 18 hrs for attachment. Add the test compound at varying concentrations ranging from 30 μM to 1 nM. Incubate the cells for 1 hr. IP-1 measurements are performed using an IP-One HTRF® assay kit (Cisbio) according to manufacturer's protocol using an assay buffer containing 1×HBSS (+Ca, +Mg), 0.1% BSA, 50 mM LiCl and 20 mM HEPES, pH 7.2. Stop the reaction by the addition of IP1-d2 (IP-1 coupled to an organic HTRF acceptor) followed by cryptate solution (http://www.htrf.com/usa/htrf-chemistry). Incubate the plates at 25° C. for 1 hr. Read the fluorescence in an Envision instrument at 665 nm and 620 nm wavelength. Calculate the ratio of 665 nm/620 nm fluorescence and convert to IP-1 levels using an IP-1 standard curve. The data is fit to a 4 parameter-fit logistics to determine EC50 values.

Structure (SMILES): Cc1ncn(C)c1-c1nnc([C@H]2CCC[C@@H](N(C)C(=O)c3cccc(Cl)c3)C2)[nH]1 [Example 1]
- IPGTT outcome (reduction in glucose AUC, P<0.05, is positive) (GPR142): positive
- ED50 (glucose AUC lowering in IPGTT) (GPR142; AUC t=0 to 60 min): 0.25 mpk
- EC50 (human GPR142; HEK293 cells expressing human GPR142, 1 hr incubation, IP-1 HTRF, read-out: hGPR142 IP1 EC50): 14.4 nM
- hGPR142 IP1 relative efficacy (human GPR142; HEK293 cells expressing human GPR142, IP-1 HTRF): 110%
